For eight compounds, IC50 results are on record in US12240862B2, “Inhibitors of peptidylarginine deiminases” (Gilead Sciences, Inc., priority 2020, dated 2025).

pIC50: −log10 of the molar value.

The target in the test is T1, human PAD4 (Homo sapiens, UniProt Q9UM07).
T1 construct: human PAD4 (NM_012387), A2P663, was PCR amplified; His-SUMO (N, cleaved yes); made in house; host or cells: E. coli BL21(DE3)
In words: In vitro PAD4 BAEE biochemical assay. As to conditions: human PAD4, BAEE substrate; 5 nM PAD4, 2 mM calcium chloride, 3 mM BAEE; geometric mean of multiple experiments. An outline of the steps:
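Ammonia generated from BAEE serves as the readout, measured by o-phthalaldehyde after EDTA termination. Final conditions: 5 nM human PAD4 (SUMO tag cleaved), 2 mM CaCl2, 3 mM BAEE, pH 7.6 MOPS buffer, 25 °C for 2 h following a 30-min compound preincubation.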

As usually defined, the pIC50 is the IC50 on a negative log10 scale, so that one unit is a factor of ten.

T1 sequence (Q9UM07 2-663): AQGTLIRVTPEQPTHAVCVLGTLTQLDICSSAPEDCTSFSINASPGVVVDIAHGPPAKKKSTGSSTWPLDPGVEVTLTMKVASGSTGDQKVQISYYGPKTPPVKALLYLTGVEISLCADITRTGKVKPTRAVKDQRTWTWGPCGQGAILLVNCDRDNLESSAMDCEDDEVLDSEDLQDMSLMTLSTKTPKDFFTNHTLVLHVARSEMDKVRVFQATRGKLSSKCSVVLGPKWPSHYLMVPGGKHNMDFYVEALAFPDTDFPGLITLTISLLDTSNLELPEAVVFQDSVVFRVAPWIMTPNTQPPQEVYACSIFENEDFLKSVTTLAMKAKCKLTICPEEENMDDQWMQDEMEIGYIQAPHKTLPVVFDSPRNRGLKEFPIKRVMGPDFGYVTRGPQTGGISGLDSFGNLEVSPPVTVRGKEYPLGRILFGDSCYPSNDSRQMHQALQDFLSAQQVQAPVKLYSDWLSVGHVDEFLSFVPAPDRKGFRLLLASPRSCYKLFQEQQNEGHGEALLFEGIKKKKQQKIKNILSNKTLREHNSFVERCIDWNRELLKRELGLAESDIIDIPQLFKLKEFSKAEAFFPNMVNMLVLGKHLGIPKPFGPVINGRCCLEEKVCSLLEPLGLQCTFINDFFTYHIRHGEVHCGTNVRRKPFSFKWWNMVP

Take `COc1cc(C(=O)N2[C@H]3CC[C@@H]2[C@H](N)C3)cc2nc(-c3cc4ccc([C@@H](C)NC(=O)N5CCN(C)CC5)nc4n3CC3CC3)c(C)n12` [Example 235, ~{N}-[(1~{R})-1-[2-[7-[(1~{R},2~{R},4~{S})-2-amino-7-azabicyclo[2.2.1]heptane-7-carbonyl]-5-methoxy-3-methylimidazo [1,2-a]pyridin-2-yl]-1-(cyclopropylmethyl)pyrrolo [2,3-b]pyridin-6-yl]ethyl]-4-methylpiperazine-1-carboxamide]: the pIC50 is 7.20. Then `COc1cc(C(=O)N2[C@H]3CC[C@@H]2[C@H](N)C3)cc2nc(-c3cc4ccc([C@@H](C)NC(=O)N(C(C)C)C(C)C)nc4n3CC3CC3)c(C)n12` [Example 236, 3-[(1~{R})-1-[2-[7-[(1~{R},2~{R},4~{S})-2-amino-7-azabicyclo[2.2.1]heptane-7-carbonyl]-5-methoxy-3-methylimidazo [1,2-a]pyridin-2-yl]-1-(cyclopropylmethyl)pyrrolo [2,3-b]pyridin-6-yl]ethyl]-1,1-di(propan-2-yl)urea], with 7.25; and `COc1cc(C(=O)N2[C@H]3CC[C@@H]2[C@H](N)C3)cc2nc(-c3cc4ccc([C@@H](C)NC(=O)N5CC(C(=O)O)C5)nc4n3CC3CC3)c(C)n12` [Example 237], with 7.45.

`COc1cc(C(=O)N2[C@H]3CC[C@@H]2[C@H](N)C3)cc2nc(-c3cc4ccc([C@@H](C)NC(=O)Nc5c(C)cccc5C)nc4n3CC3CC3)c(C)n12` [Example 238, 1-[(1~{R})-1-[2-[7-[(1~{R},2~{R},4~{S})-2-amino-7-azabicyclo[2.2.1]heptane-7-carbonyl]-5-methoxy-3-methylimidazo [1,2-a]pyridin-2-yl]-1-(cyclopropylmethyl)pyrrolo [2,3-b]pyridin-6-yl]ethyl]-3-(2,6-dimethylphenyl)urea]: the pIC50 was 6.84. Next, `COc1cc(C(=O)N2[C@H]3CC[C@@H]2[C@H](N)C3)cc2nc(-c3cc4ccc([C@@H](C)NC(=O)Nc5ccccc5)nc4n3CC3CC3)c(C)n12` [Example 239, 1-[(1~{R})-1-[2-[7-[(1~{R},2~{R},4~{S})-2-amino-7-azabicyclo[2.2.1]heptane-7-carbonyl]-5-methoxy-3-methylimidazo [1,2-a]pyridin-2-yl]-1-(cyclopropylmethyl)pyrrolo [2,3-b]pyridin-6-yl]ethyl]-3-phenylurea]: 7.09; `COc1cc(C(=O)N2[C@H]3CC[C@@H]2[C@H](N)C3)cc2nc(-c3cc4ccc([C@@H](C)NC(=O)N(C)Cc5ccccc5)nc4n3CC3CC3)c(C)n12` [Example 240, 3-[(1~{R})-1-[2-[7-[(1~{R},2~{R},4~{S})-2-amino-7-azabicyclo[2.2.1]heptane-7-carbonyl]-5-methoxy-3-methylimidazo [1,2-a]pyridin-2-yl]-1-(cyclopropylmethyl)pyrrolo [2,3-b]pyridin-6-yl]ethyl]-1-benzyl-1-methylurea]: 7.07; `COc1cc(C(=O)N2[C@H]3CC[C@@H]2[C@H](N)C3)cc2nc(-c3cc4ccc([C@@H](C)NC(=O)N5CCOCC5)nc4n3CC3CC3)c(C)n12` [Example 241, ~{N}-[(1~{R})-1-[2-[7-[(1~{R},2~{R},4~{S})-2-amino-7-azabicyclo[2.2.1]heptane-7-carbonyl]-5-methoxy-3-methylimidazo [1,2-a]pyridin-2-yl]-1-(cyclopropylmethyl)pyrrolo [2,3-b]pyridin-6-yl]ethyl] morpholine-4-carboxamide]: 7.26. Then `COc1cc(C(=O)N2[C@H]3CC[C@@H]2[C@H](N)C3)cc2nc(-c3cc4ccc([C@@H](C)NC(=O)N(C)c5ccccc5)nc4n3CC3CC3)c(C)n12` [Example 242, 3-[(1~{R})-1-[2-[7-[(1~{R},2~{R},4~{S})-2-amino-7-azabicyclo[2.2.1]heptane-7-carbonyl]-5-methoxy-3-methylimidazo [1,2-a]pyridin-2-yl]-1-(cyclopropylmethyl)pyrrolo [2,3-b]pyridin-6-yl]ethyl]-1-methyl-1-phenylurea], with 6.62.
